Target: T1, Alpha-1A/Alpha-1B/Alpha-1D adrenergic receptor (Rattus norvegicus, UniProt P15823+P43140+P23944)
T1 sequence (P15823 whole entry): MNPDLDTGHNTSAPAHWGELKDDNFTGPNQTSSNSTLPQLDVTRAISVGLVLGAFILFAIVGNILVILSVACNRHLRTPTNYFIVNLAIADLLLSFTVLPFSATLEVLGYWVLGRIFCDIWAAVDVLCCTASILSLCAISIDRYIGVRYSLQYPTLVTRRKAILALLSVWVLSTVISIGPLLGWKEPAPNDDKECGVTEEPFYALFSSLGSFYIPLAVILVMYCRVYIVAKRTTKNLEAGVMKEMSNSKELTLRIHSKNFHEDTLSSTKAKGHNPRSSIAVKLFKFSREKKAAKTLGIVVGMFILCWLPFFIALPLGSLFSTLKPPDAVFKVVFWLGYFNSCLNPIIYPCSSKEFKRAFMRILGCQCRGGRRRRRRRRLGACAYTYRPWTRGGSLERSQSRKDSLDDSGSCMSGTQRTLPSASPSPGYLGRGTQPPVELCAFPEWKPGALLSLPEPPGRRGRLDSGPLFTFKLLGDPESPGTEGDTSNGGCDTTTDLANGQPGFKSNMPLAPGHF
T1 sequence (P43140 whole entry): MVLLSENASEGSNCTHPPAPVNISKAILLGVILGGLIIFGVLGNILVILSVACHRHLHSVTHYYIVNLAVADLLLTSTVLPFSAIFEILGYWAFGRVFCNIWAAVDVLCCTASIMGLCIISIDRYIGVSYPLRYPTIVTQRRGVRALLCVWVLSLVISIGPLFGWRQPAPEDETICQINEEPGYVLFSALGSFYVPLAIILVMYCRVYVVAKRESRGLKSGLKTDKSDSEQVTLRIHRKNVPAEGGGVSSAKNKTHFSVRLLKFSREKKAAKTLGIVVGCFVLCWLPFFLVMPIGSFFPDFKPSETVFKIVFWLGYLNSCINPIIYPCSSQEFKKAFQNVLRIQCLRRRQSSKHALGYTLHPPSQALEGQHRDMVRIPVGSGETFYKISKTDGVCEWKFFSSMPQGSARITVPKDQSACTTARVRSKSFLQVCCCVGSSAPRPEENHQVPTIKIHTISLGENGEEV
T1 sequence (P23944 whole entry): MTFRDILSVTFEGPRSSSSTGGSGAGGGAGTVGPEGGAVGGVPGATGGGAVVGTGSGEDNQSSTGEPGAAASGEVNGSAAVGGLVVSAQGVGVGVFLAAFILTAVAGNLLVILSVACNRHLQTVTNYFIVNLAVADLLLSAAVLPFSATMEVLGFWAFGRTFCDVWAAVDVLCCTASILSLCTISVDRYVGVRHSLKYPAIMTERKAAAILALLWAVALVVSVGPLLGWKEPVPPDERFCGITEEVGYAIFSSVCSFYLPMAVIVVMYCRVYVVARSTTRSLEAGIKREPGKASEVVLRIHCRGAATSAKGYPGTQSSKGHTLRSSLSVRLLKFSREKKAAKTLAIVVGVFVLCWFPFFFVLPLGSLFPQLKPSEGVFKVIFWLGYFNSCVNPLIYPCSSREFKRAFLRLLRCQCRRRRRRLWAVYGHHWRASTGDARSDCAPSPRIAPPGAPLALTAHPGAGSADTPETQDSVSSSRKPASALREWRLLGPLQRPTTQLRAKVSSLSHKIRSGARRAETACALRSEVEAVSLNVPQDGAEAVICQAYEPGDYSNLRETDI
Assay: Binding affinity towards Alpha-1 adrenergic receptor in rat cerebral cortex membranes using [3H]prazosin as radioligand

With `O=c1n(CN2CCN(c3cccc4ccccc34)CC2)c(O)c2n1CCC2` [2-(4-Naphthalen-1-yl-piperazin-1-ylmethyl)-tetrahydro-pyrrolo[1,2-c]imidazole-1,3-dione] the Ki was greater than 1000 nM.
